Laboratory results as given in ChEMBL document CHEMBL1201862, “PubChem BioAssay data set” (2004).
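Compound exposure: 48 hours, 5 concentrations, 96-well plates. GI50 marks 50% less growth.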 The source made the active and inactive calls. No stated cut-off is given here; in the data, active = GI50 up to about 1.1 µM and inactive = higher.

How the values were obtained:
Assay in all cases: NCI-60 cell line screen, 48 h
IGROV-1 = system: IGROV-1
LOX IMVI = system: LOX IMVI
SK-OV-3 = system: SK-OV-3
COLO 205 = system: COLO 205
OVCAR-8 = system: OVCAR-8
A498 = system: A498
UO-31 = system: UO-31
HOP-92 = system: HOP-92
OVCAR-4 = system: OVCAR-4
TK-10 = system: TK-10
786-0 = system: 786-0
NCI-H226 = system: NCI-H226
SR = system: SR

Measured: GI50

COc1ccc(C2NC(c3ccc(OC)cc3)C(C)C(=O)C2C)cc1 (stereo not drawn)
inactive: IGROV-1 > 100 µM | LOX IMVI > 100 µM | SK-OV-3 > 100 µM | COLO 205 > 100 µM | OVCAR-8 > 100 µM | A498 > 100 µM | UO-31 60 µM | HOP-92 > 100 µM | OVCAR-4 > 100 µM | TK-10 > 100 µM | 786-0 > 100 µM

COc1ccc(NC(=O)CC/C(CC(=O)c2ccco2)=N/Nc2ccc([N+](=O)[O-])cc2[N+](=O)[O-])cc1
inactive: IGROV-1 > 100 µM | NCI-H226 > 100 µM | LOX IMVI 39.7 µM | SK-OV-3 > 100 µM | COLO 205 > 100 µM | OVCAR-8 > 100 µM | A498 > 100 µM | UO-31 > 100 µM | HOP-92 34.4 µM | OVCAR-4 96.2 µM | TK-10 > 100 µM | 786-0 > 100 µM | SR 26.7 µM

CCn1cc(/C=C/C(C)c2cn(CC)c(=O)[nH]c2=O)c(=O)[nH]c1=O (stereo not drawn)
inactive: IGROV-1 > 100 µM | LOX IMVI > 100 µM | SK-OV-3 > 100 µM | COLO 205 > 100 µM | OVCAR-8 > 100 µM | UO-31 > 100 µM | HOP-92 11.3 µM | OVCAR-4 > 100 µM | TK-10 > 100 µM | 786-0 > 100 µM

O=C(NCCOCCO)c1ccc(O)cc1
inactive: IGROV-1 > 100 µM | LOX IMVI > 100 µM | SK-OV-3 > 100 µM | COLO 205 > 100 µM | OVCAR-8 > 100 µM | A498 > 100 µM | UO-31 > 100 µM | HOP-92 > 100 µM | TK-10 > 100 µM | 786-0 > 100 µM

NC(=O)Nc1c([N+](=O)[O-])cc(C(F)(F)F)cc1[N+](=O)[O-]
inactive: IGROV-1 > 100 µM | NCI-H226 > 100 µM | LOX IMVI 44.7 µM | COLO 205 34.5 µM | OVCAR-8 57.5 µM | A498 > 100 µM | UO-31 > 100 µM | HOP-92 40.5 µM | OVCAR-4 63.1 µM | TK-10 > 100 µM | 786-0 > 100 µM | SR > 100 µM

CC1(C)CCC(Sc2ccccc2)O1 (stereo not drawn)
inactive: IGROV-1 > 100 µM | LOX IMVI > 100 µM | SK-OV-3 > 100 µM | COLO 205 > 100 µM | OVCAR-8 > 100 µM | A498 > 100 µM | UO-31 > 100 µM | HOP-92 > 100 µM | OVCAR-4 > 100 µM | TK-10 > 100 µM | 786-0 > 100 µM | SR > 100 µM

COCCCCCC(=O)CP(=O)(OC)OC
inactive: IGROV-1 > 100 µM | NCI-H226 > 100 µM | LOX IMVI > 100 µM | SK-OV-3 > 100 µM | COLO 205 > 100 µM | OVCAR-8 > 100 µM | A498 > 100 µM | UO-31 > 100 µM | HOP-92 > 100 µM | TK-10 > 100 µM | 786-0 > 100 µM | SR 52 µM

Cc1cc(C)nc(NS(=O)(=O)c2ccc(Nc3c4ccc(Cl)cc4nc4c(C(=O)Nc5ccc(S(N)(=O)=O)cc5)cccc34)cc2)n1
inactive: LOX IMVI 16 µM | SK-OV-3 13.9 µM | OVCAR-8 16.9 µM | A498 14.8 µM | UO-31 18.6 µM | OVCAR-4 23.5 µM | TK-10 36.3 µM | 786-0 15.2 µM | SR 16.6 µM

O=C(CCc1nnc2s/c(=C\c3ccccc3)c(=O)n12)Nc1cc(Cl)ccc1Cl
inactive: IGROV-1 > 100 µM | NCI-H226 > 100 µM | LOX IMVI > 100 µM | SK-OV-3 > 100 µM | COLO 205 > 100 µM | OVCAR-8 > 100 µM | A498 > 100 µM | UO-31 > 100 µM | HOP-92 > 100 µM | OVCAR-4 > 100 µM | TK-10 > 100 µM | 786-0 > 100 µM | SR > 100 µM

O=C1OC(/C=C/c2ccccc2)C(=O)C1=O (stereo not drawn)
inactive: IGROV-1 > 100 µM | NCI-H226 > 100 µM | SK-OV-3 > 100 µM | COLO 205 > 100 µM | A498 > 100 µM | UO-31 > 100 µM | HOP-92 > 100 µM | OVCAR-4 > 100 µM | TK-10 > 100 µM | 786-0 > 100 µM

CN(C)c1ccc(/C=c2\sc3nc4ccccc4n3c2=O)cc1
inactive: IGROV-1 > 100 µM | NCI-H226 > 100 µM | LOX IMVI > 100 µM | COLO 205 > 100 µM | OVCAR-8 > 100 µM | A498 > 100 µM | UO-31 > 100 µM | HOP-92 > 100 µM | OVCAR-4 > 100 µM | TK-10 > 100 µM | 786-0 > 100 µM

CCCCCCCCCCCCCCCCOC(=O)C(C(=O)OCCCCCCCCCCCCCCCC)[N+](C)(C)CCOC(C)=O
inactive: IGROV-1 3.92 µM | NCI-H226 18.7 µM | LOX IMVI 21.8 µM | SK-OV-3 17.8 µM | COLO 205 15.8 µM | OVCAR-8 17.7 µM | A498 23.6 µM | UO-31 19.7 µM | HOP-92 2.85 µM | OVCAR-4 15.9 µM | TK-10 13 µM | 786-0 14.3 µM

C=CCN(N=O)C(=O)ON1C(=O)CCC1=O
inactive: IGROV-1 > 100 µM | LOX IMVI > 100 µM | SK-OV-3 > 100 µM | COLO 205 > 100 µM | OVCAR-8 > 100 µM | A498 > 100 µM | UO-31 > 100 µM | HOP-92 > 100 µM | OVCAR-4 > 100 µM | TK-10 > 100 µM | 786-0 > 100 µM

CCC(C)c1cccc(C)c1NC(=O)C(=O)Cc1nc2ccccc2s1 (stereo not drawn)
inactive: IGROV-1 > 100 µM | LOX IMVI > 100 µM | SK-OV-3 > 100 µM | COLO 205 > 100 µM | OVCAR-8 > 100 µM | A498 > 100 µM | UO-31 > 100 µM | HOP-92 > 100 µM | OVCAR-4 > 100 µM | TK-10 > 100 µM | 786-0 > 100 µM

C/C=C1/C=CC2c3[nH]c4ccccc4c3CCN2C1 (stereo not drawn)
inactive: IGROV-1 > 400 µM | NCI-H226 358 µM | LOX IMVI > 400 µM | SK-OV-3 > 400 µM | COLO 205 > 400 µM | OVCAR-8 > 400 µM | HOP-92 199 µM | TK-10 > 400 µM | 786-0 > 400 µM | SR 331 µM

Cn1nc(-c2ccccc2)c2c(/C=C/c3ccc(F)cc3)onc2c1=O
inactive: IGROV-1 > 100 µM | LOX IMVI 90.4 µM | SK-OV-3 50 µM | COLO 205 > 100 µM | OVCAR-8 38.1 µM | UO-31 29.2 µM | HOP-92 2.72 µM | TK-10 90.6 µM | 786-0 11.1 µM

Cn1c(=O)c(C(c2ccc([N+](=O)[O-])cc2)c2c(O)c3ccccc3n(C)c2=O)cc2ccccc21 (stereo not drawn)
inactive: IGROV-1 42.3 µM | NCI-H226 13.4 µM | LOX IMVI 35.2 µM | SK-OV-3 60.1 µM | COLO 205 32.7 µM | OVCAR-8 > 100 µM | UO-31 35.2 µM | HOP-92 53.1 µM | OVCAR-4 41.1 µM | TK-10 29.9 µM | 786-0 54.6 µM | SR 39.4 µM

CCCCC1(OC(=O)CCC(=O)O)CCC2(CCC(C)C(C/C=C(C)/C=C/C(O)C(C)/C=C/C(=O)O)O2)OC1CC/C(C)=C/C(=O)O (stereo not drawn)
inactive: IGROV-1 1.47 µM | NCI-H226 2.14 µM | LOX IMVI 1.66 µM | SK-OV-3 6.17 µM | COLO 205 16.6 µM | OVCAR-8 2.84 µM | A498 3.26 µM | UO-31 2.97 µM | HOP-92 1.67 µM | OVCAR-4 2.1 µM | TK-10 17 µM | 786-0 3.52 µM | SR 3.04 µM

Cc1cc(Cl)cc2c1NC(=O)C2=O.O=C(c1ccccc1)C(F)(F)F
inactive: IGROV-1 > 100 µM | NCI-H226 > 100 µM | LOX IMVI 15.3 µM | SK-OV-3 > 100 µM | COLO 205 57.7 µM | OVCAR-8 55.5 µM | A498 > 100 µM | UO-31 91.6 µM | HOP-92 52.6 µM | OVCAR-4 33 µM | TK-10 57.5 µM | 786-0 70.1 µM

CC(C)=CCC/C(C)=C/CC/C(C)=C/CC/C=C(\C)CC/C=C(\C)CCC1SC1(C)C (stereo not drawn)
inactive: IGROV-1 > 100 µM | NCI-H226 > 100 µM | LOX IMVI > 100 µM | SK-OV-3 > 100 µM | COLO 205 > 100 µM | OVCAR-8 > 100 µM | A498 > 100 µM | UO-31 > 100 µM | HOP-92 64 µM | OVCAR-4 > 100 µM | TK-10 > 100 µM | 786-0 > 100 µM

N#CC12CC3(CCC1CCC1(C2)OCCO1)OCCO3 (stereo not drawn)
inactive: IGROV-1 > 100 µM | NCI-H226 > 100 µM | LOX IMVI > 100 µM | SK-OV-3 > 100 µM | COLO 205 > 100 µM | OVCAR-8 > 100 µM | A498 > 100 µM | UO-31 > 100 µM | HOP-92 > 100 µM | OVCAR-4 > 100 µM | TK-10 > 100 µM | 786-0 > 100 µM | SR > 100 µM

COC(=O)[C@@H]1C(=O)O[C@@H](c2ccc3c(c2)OCO3)[C@@H]1C(=O)OC.COC(=O)[C@H]1C(=O)O[C@@H](c2ccc3c(c2)OCO3)[C@@H]1C(=O)OC
inactive: IGROV-1 > 100 µM | NCI-H226 > 100 µM | LOX IMVI > 100 µM | SK-OV-3 > 100 µM | COLO 205 > 100 µM | OVCAR-8 > 100 µM | A498 > 100 µM | UO-31 > 100 µM | HOP-92 43.8 µM | OVCAR-4 > 100 µM | TK-10 > 100 µM | 786-0 > 100 µM | SR > 100 µM

Nc1ccccc1N
inactive: IGROV-1 > 100 µM | LOX IMVI > 100 µM | SK-OV-3 > 100 µM | COLO 205 > 100 µM | OVCAR-8 > 100 µM | A498 > 100 µM | UO-31 > 100 µM | HOP-92 > 100 µM | OVCAR-4 > 100 µM | TK-10 > 100 µM | 786-0 > 100 µM | SR 32.9 µM
